Assays:
[1] = biological target: T1, β2-GPI (Homo sapiens, UniProt P02749); test: ELISA using a plate coated with the ligand, β2-GPI binding detected by anti-β2-GPI antibody; conditions: immobilized lipid; for β2-GPI-binding(OD) w/Cof-22, value in parentheses / β2-GPI-binding(OD) w/EY2C9, value in parentheses / β2-GPI-binding(OD) w/WB-CAL-1, value in parentheses: not explained (method: presence or absence of β2-GPI); for β2-GPI-binding(OD) w/Cof-22: detection with Cof-22; for β2-GPI-binding(OD) w/Cof-22 / β2-GPI-binding(OD) w/EY2C9 / β2-GPI-binding(OD) w/WB-CAL-1: upper value of the pair; for β2-GPI-binding(OD) w/EY2C9: detection with EY2C9; for β2-GPI-binding(OD) w/WB-CAL-1: detection with WB-CAL-1
T1 construct: β2-GPI was purified from plasma in healthy persons; from tissue; host or cells: pooled human plasma from healthy persons
T1 sequence (P02749 20-345): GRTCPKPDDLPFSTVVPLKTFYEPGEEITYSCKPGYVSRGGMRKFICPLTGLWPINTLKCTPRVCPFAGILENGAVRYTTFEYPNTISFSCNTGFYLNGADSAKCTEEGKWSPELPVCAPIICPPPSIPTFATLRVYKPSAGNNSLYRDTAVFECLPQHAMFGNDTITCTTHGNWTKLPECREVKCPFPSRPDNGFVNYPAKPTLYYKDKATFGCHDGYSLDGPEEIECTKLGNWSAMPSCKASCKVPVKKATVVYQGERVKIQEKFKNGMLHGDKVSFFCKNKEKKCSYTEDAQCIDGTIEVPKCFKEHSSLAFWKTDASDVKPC
Protocol: (7) ELISA for Detection of Anti-β2-GPI/Lipid IgG Antibody
CL (derived from bovine heart, manufactured by Sigma), oxLig-1 or 9-COOH-22KC (50 μg/ml ethanol, 50 μl/well) was adsorbed by evaporation onto a polystyrene plate (Immulon 1B; Dynex Technologies Inc.), and this plate was blocked with 1% BSA. In each well, the purified monoclonal autoantibody or serum sample (100-fold dilution) was incubated for 1 hour in the presence or absence of β2-GPI (25 μg/ml), and then HRP-labeled anti-mouse IgG or anti-human IgG or IgM was added to each well.
The subsequent step was carried out according to the method described in the “ELISA for detection of β2-GPI/oxLDL complex”. The optical density (OD) of each sample was corrected by the average OD of the blank wells, and its antibody titer was calculated by using the positive standard in the living body. When the antibody titer in a sample was more than 3 times as high as the standard deviation of the mean of plasma samples from 50 healthy persons, the sample was expressed as positive.

[2] = biological target: T1, β2-GPI; test: Ligand blotting analysis on a TLC plate; format: binding; conditions: detection by Cof-22 antibody and EY2C9 antibody; FIG. 1
Protocol: FIG. 1 is a graph showing ligand blotting analysis of two ω-carbdxylmutants (oxLig-1 and 9-COOH-22KC) of oxysterol ester. The ligand developed on a TLC plate was stained with I2 vapor (A), and the ligand blotting was conducted by using anti-β2-GPI antibody (Cof-22 (B) and EY2C9 (C)).
(5) Ligand Blotting Analysis on a Thin-Layer Chromatography (TLC) Plate
For conducting TLC ligand blotting, the lipid was spotted on a Polygram silica gel G plate (manufactured by Machery-Nagel) and developed with chloroform/methanol (8/1, v/v). The ligand blotting analysis was conducted according to a method described in [reference 7]. That is, the plate was dried and blocked with PBS containing 1% bovine serum albumin (BSA), and then the plate was incubated for 1 hour together with the β2-GPI and anti-β2-GPI antibodies (Cof-22 and EY2C9). Then, the plate was incubated for 1 hour with horseradish peroxidase (HRP)-labeled anti-mouse IgG antibody or anti-human IgM antibody. Between each step, the plate was washed sufficiently with PBS. Coloration was conducted using H2O2 and 4-methoxy-1-naphthol. In a TLC plate of control, the separated ligand was stained with I2 vapor.

Row | Compound | β2-GPI-binding(OD) w/Cof-22, value in parentheses [1] | β2-GPI-binding(OD) w/EY2C9, value in parentheses [1] | β2-GPI-binding(OD) w/WB-CAL-1, value in parentheses [1] | β2-GPI-binding(OD) w/Cof-22 [1] | β2-GPI-binding(OD) w/EY2C9 [1] | β2-GPI-binding(OD) w/WB-CAL-1 [1] | β2-GPI binding in ligand blotting [2]
1 | CC(C)CCC(=O)[C@@H](C)[C@H]1CC[C@H]2[C@@H]3CC=C4C[C@@H](OC(=O)CCCCCCCCC(=O)O)CC[C@]4(C)[C@H]3CC[C@]12C [9-COOH-22KC, 22-Ketocholesteryl-9-carboxynonanoate] | (0.067 +/− 0.013) OD | (0.046 +/− 0.008) OD | (0.031 +/− 0.011) OD | 0.217 +/− 0.016 OD | 0.130 +/− 0.024 OD | 0.063 +/− 0.004 OD | 
2 | CC(C)CCC[C@@H](C)[C@H]1CC[C@H]2[C@@H]3C(=O)C=C4C[C@@H](OC(=O)CCCCCCCCC(=O)O)CC[C@]4(C)[C@H]3CC[C@]12C [oxLig-1, 7-ketocholesteryl-9-carboxynonanoate] | (0.041 +/− 0.001) OD | (0.013 +/− 0.001) OD | (0.013 +/− 0.004) OD | 1.194 +/− 0.099 OD | 0.878 +/− 0.031 OD | 0.441 +/− 0.007 OD | bound predominantly

— patent US7455976B2, “Method of measuring oxidized LDL/β2-glycoprotein I complex occurring in the living body” (priority 2002, dated 2008)
